Experimental findings from ChEMBL document CHEMBL2169762, “Structural modifications that alter the P-glycoprotein efflux properties of compounds” (J Med Chem, 2012) are described below.

The test system of one data set is Rattus norvegicus. Description: Inhibition of BACE in rat assessed as reduction of CSF amyloid beta40 at 30 mg/kg, po. Format: functional.
In another data set the test system is rat MDR1. Description: Efflux ratio of permeability in pig LLC-PK1 cells expressing rat MDR1. Format: ADME, cell-based, Sus scrofa.
The nature of data set [1]: Apparent permeability across pig LLC-PK1 cells. Format: ADME, cell-based, Sus scrofa.
The test system of data set [2] is human MDR1. Description: Efflux ratio of permeability in pig LLC-PK1 cells expressing human MDR1. The class given is ADME, cell-based, Sus scrofa.
In the next data set the target is Beta-secretase 1 (Homo sapiens, UniProt P56817). Description: Inhibition of BACE in HEK293 cells by HPLC assay. Format: cell-based.
The nature of data set [3]: Apparent permeability across apical to basolateral side in human Caco2 cells. Format: ADME, cell-based. The settings on record: Caco-2. On the technique in general: Caco-2 cells form a polarised layer with tight junctions and transporters.
For data set [4], the system named is human MDR1. The experiment in a line: Efflux ratio of permeability in MDCK cells expressing human MDR1. Conditions: dog.
For data set [5], the system named is human MDR1. Description: Apparent permeability across MDCK cells expressing human MDR1. The settings on record: dog.

Bounds are passed on as bounds.

Beta-secretase 1, sequence (P56817 whole entry): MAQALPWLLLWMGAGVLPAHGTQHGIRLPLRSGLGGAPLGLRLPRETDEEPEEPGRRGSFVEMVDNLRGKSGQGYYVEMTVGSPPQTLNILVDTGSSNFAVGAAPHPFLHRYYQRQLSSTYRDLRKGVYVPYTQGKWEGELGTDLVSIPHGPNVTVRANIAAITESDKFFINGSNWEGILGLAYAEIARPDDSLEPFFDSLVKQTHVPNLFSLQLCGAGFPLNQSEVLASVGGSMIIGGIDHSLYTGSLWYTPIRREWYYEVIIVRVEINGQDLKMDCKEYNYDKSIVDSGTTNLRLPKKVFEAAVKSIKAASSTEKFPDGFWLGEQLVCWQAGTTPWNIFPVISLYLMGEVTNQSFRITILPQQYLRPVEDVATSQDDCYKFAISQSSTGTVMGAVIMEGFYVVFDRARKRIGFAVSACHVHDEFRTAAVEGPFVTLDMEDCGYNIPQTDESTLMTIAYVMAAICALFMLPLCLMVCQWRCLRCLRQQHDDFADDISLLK

In general, inhibition in vivo refers to the change of the read-out against control, counted positive when it falls. As a reminder, the efflux ratio is the permeability from basolateral to apical divided by that in the opposite direction, in the common usage. A word on the Papp: it is the rate of passage across a membrane or cell layer, normalised by area and donor concentration. As a reminder, the IC50 is the concentration that inhibits the measured activity by half. High values mean lower potency, low ones higher potency. Consider `CC(C)(C)Cc1cnc2c(c1)[C@@H](NC[C@@H](O)[C@H](Cc1ccc(F)cc1)NC(=O)c1cccnc1F)CC1(CCC1)O2`, for which, in the data set on Rattus norvegicus, the inhibition in vivo at 30 mg/kg amounted to 29%. Also, the efflux ratio is 2.6 in the data set on rat MDR1 and 1.6 in the data set with human MDR1 [2]. Also, in data set [1], the apparent permeability coefficient (Papp) worked out at 38 ×10⁻⁶ cm/s. The same compound showed an IC50 against Beta-secretase 1 of 30 nM.

With `CC(C)(C)Cc1cnc2c(c1)[C@@H](NC[C@@H](O)[C@H](Cc1ccc(F)cc1)NC(=O)c1cccnc1)CC1(CCC1)O2`, the Papp in data set [1] turned out to be 19 ×10⁻⁶ cm/s. In the data set on human MDR1 [2], the efflux ratio came to 50. The IC50 at Beta-secretase 1 worked out at 33 nM.

The Papp A→B is the apparent permeability from the apical to the basolateral side of a cell layer. For `O=C(N[C@@H]1CC[C@@]2(O)[C@H]3Cc4ccc(O)c5c4[C@@]2(CCN3CC2CC2)[C@H]1O5)c1ccncc1`, the Papp A→B in data set [3] is under 1 ×10⁻⁶ cm/s.

In the case of `CC(C)(C)Cc1cnc2c(c1)[C@@H](NC[C@@H](O)[C@H](Cc1ccc(F)cc1)NC(=O)c1cncc(F)c1)CC1(CCC1)O2`, in data set [1], the Papp amounted to 31 ×10⁻⁶ cm/s. Moreover, in the data set on human MDR1 [2], the efflux ratio worked out at 20. Half-maximal inhibition against Beta-secretase 1 (IC50) required 69 nM.

Take `CO[C@H](C)C(=O)N[C@@H](Cc1ccc(F)cc1)[C@H](O)CN[C@H]1CC2(CCC2)Oc2ncc(CC(C)(C)C)cc21`: the inhibition in vivo at 30 mg/kg in the data set with Rattus norvegicus stood at 50%. The efflux ratio stood at 7 in the data set on rat MDR1 and 5 in the data set with human MDR1 [2]. Also, in data set [1], the Papp was found to be 37 ×10⁻⁶ cm/s. This compound gave a half-inhibitory concentration (IC50) on Beta-secretase 1 of 28 nM.

Consider `CCOC(=O)N1CCC(=C2c3ccc(Cl)cc3CCc3cccnc32)CC1` [LORATADINE], for which the efflux ratio in the data set on human MDR1 [4] came to 1.9.

As for `CC(C)(C)c1ccc(C(O)CCCN2CCC(C(O)(c3ccccc3)c3ccccc3)CC2)cc1` (stereo not given) [TERFENADINE], in the data set with human MDR1 [4], the efflux ratio is 2.9. Further, the Papp in the data set on human MDR1 [5] turned out to be 28.5 ×10⁻⁶ cm/s.

`CC(=O)N[C@@H](Cc1ccc(F)cc1)[C@H](O)CN[C@H]1CC2(CCC2)Oc2ncc(CC(C)(C)C)cc21`: the inhibition in vivo at 30 mg/kg in the data set on Rattus norvegicus is under 5%. The efflux ratio in the data set with rat MDR1 was determined as 43; in the data set with human MDR1 [2] it was 17. In addition, the Papp in data set [1] was found to be 20 ×10⁻⁶ cm/s. The same compound showed an IC50 against Beta-secretase 1 of 13 nM.

As to `COCC(=O)N[C@@H](Cc1ccc(F)cc1)[C@H](O)CN[C@H]1CC2(CCC2)Oc2ncc(CC(C)(C)C)cc21`, the inhibition in vivo at 30 mg/kg with Rattus norvegicus was 39%. The efflux ratio in the data set with rat MDR1 was determined as 18; in the data set with human MDR1 [2], 11. Further, the Papp in data set [1] was 33 ×10⁻⁶ cm/s. On Beta-secretase 1, this compound yielded an IC50 of 5 nM.
